Assay results: patent publication US20210105999A1, “COMPOSITIONS FOR PROLONGING THE SURVIVAL AFTER ORTHOTOPIC AND HETEROTOPIC XENOGENEIC HEART, KIDNEY, LUNG OR LIVER TRANSPLANTATIONS” (priority 2018, published 2021)
Blank lines part the entries; values can stand above or below the molecule they belong to.

Tests used:
[1] = test system: transplanted GT-KO/hCD46/hTM porcine donor heart; assay: Life-supporting orthotopic pig-to-baboon cardiac xenotransplantation; format: in vivo, baboon (Papio Anubis)
Description: Seven juvenile pigs of cross-bred genetic backround (German Landrace and Large White, blood group 0) served as donors for heart xenotransplantation. All organs were homozygous for alpha 1,3-galactosyltransferase knockout (GT-KO), and transgeneic for hCD46/thrombomodulin (hTM) (Revivicor, Blacksburg, Va., USA and Institute for Molecular Animal Breeding and Biotechnology, Gene Center, Faculty of Veterinary Medicine, Ludwig-Maximilians-University, Munich, Germany). Localisation and stability of hCD46/hTM expression was verified post-mortem by immunohistochemistry (FIG. 15). Donor heart function and absence of valvular defects were evaluated 7 days prior to transplantation by echocardiographies. Seven male captive-bred baboons (Papio Anubis, blood groups B and AB) were used as recipients.
The recipient's thorax was opened at midline. Unfractionated heparin (500 IU/kg; Heparin-Natrium-25000-ratiopharm, ratiopharm GmbH, Ulm, Germany) was given and the heart-lung machine connected, using both caval veins and the ascending aorta. Cardiopulmonary bypass commenced and the recipient cooled (30° C. in group I, 34° C. in groups II and III). After crossclamping the ascending aorta, the recipient's heart was excised at the atrial levels, both large vessels were cut. The porcine donor heart was transplanted applying Shumway's and Lower's technique (cf. reference 8).
Immunosuppression was based on Mohiuddin's regimen (cf. reference 5; there were changes as indicated in the following), with C1 esterase inhibitor instead of cobra venom factor for complement inhibition. Induction consisted of anti-CD20 antibody (Mabthera; Roche Pharma AG, Grenzach-Wyhlen, Germany), ATG (Thymoglobuline, Sanofi-Aventis Germany GmbH, Frankfurt, Germany), and either anti-CD40 antibody (mouse/rhesus chimeric IgG4 clone 2C10R4, NIH Nonhuman Primate Reagent Resource, Mass Biologicals, Boston, Mass., USA; courtesy of Keith Reimann) or humanised anti-CD40L pasylated Fab (production: Wacker-Chemie, Burghausen, Germany; purification: XL-protein GmbH, Freising, Germany; courtesy of Arne Skerra, cf. reference 9). Maintenance immunosuppression consisted of MMF (CellCept, Roche, Basle, Switzerland; trough level 2-3 μg/ml), either anti-CD40 antibody or anti-CD40L pasylated Fab, methylprednisolone (Urbasone solubile, Sanofi-Aventis Germany GmbH, Frankfurt, Germany). Anti-inflammatory therapy included II-6-receptor antibody (RoActemra, Roche Pharma AG, Grenzach-Wyhlen, Germany), TNFα inhibitor (Enbrel, Pfizer Pharma GmbH, Berlin, Germany) and II-1-receptor antagonist (Kineret, Swedish Orphan Biovitrum GmbH, Martinsried, Germany). Additive therapy: acetylsalicylic acid (Aspirin, Bayer Vital GmbH, Leverkusen, Germany), unfractionated heparin (Heparin-Natrium-25000-ratiopharm, ratiopharm GmbH, Ulm, Germany), C1 esterase inhibitor (Berinert, CSL Behring GmbH, Hattersheim, Germany), ganciclovir (Cymevene, Roche Pharma AG, Grenzach-Wyhlen, Germany), cefuroxime (Cefuroxim Hikma, Hikma Pharma GmbH, Martinsried, Germany) and epoetin beta (NeoRecormon 5000IU, Roche Pharma AG, Grenzach-Wyhlen, Germany).
Starting from 10 mg/kg/d, methylprednisolone was tapered down 1 mg/kg every 10 days in group I and II; in group III, methylprednisolone was tapered down to 0.1 mg/kg within 19 days. […]
Transthoracic echocardiographies were done in analgosedation at regular intervals using an HP Sonos 7500 (HP Inc., Palo Alto, Calif., USA); midpapillary short axis views were recorded. […]

PCNA = assay: Western blot analysis of myocardium of transplanted hearts, PCNA; format: in vivo, pig; conditions: experiment 67 (group III), after treatment with temsirolimus, compared to control (Co)
Protocol: For protein extraction, heart samples were homogenized in Laemmli-extraction-buffer, and the protein content was estimated by the bicinchoninic acid (BCA, Merck, Darmstadt, Germany) protein assay. 20 μg of total protein was separated by 10% SDS-PAGE and transferred to polyvinylidene difluoride (PDVF) membranes (Millipore, Billerica, USA) by electroblotting. Membranes were washed in Tris-buffered saline solution with 0.1% Tween-20 (Merck) (TBS-T) and blocked in 5% w/v fat-free milk powder (Roth, Karlsruhe, Germany) for 1 h at room temperature. Then membranes were washed again in TBS-T and incubated in 5% w/v BSA (Roth) of the appropriate primary antibody overnight at 4° C. The following antibodies were used: rabbit anti-human pmTOR (#5536; Cell Signaling, Frankfurt, Germany) and mouse anti-human PCNA (#2586; Cell Signalling). After washing, membranes were incubated in 5% w/v fat-free milk powder with a horseradish peroxidase labelled secondary antibody for 1 h at room temperature. Bound antibodies were detected using an enhanced chemiluminescence detection reagent (ECL Advance Western Blotting Detection Kit, GE Healthcare, Munich, Germany) and appropriate x-ray films (GE Healthcare). After detection, membranes were stripped (Elution buffer: 2% SDS, 62.5 mM Tris/HCl, pH 6.7 and 100 mM […] for 30 min at 70° C.) and incubated with an appropriate second antibody. […]

phosphorylated mTOR = biological target: T1, phosphorylated mTOR (Sus scrofa, UniProt F1RHR8); assay: Western blot analysis of myocardium of transplanted hearts, phosphorylated mTOR; format: in vivo, pig; conditions: experiment 67 (group III), after treatment with temsirolimus, compared to control (Co)
T1 construct: heart samples were homogenized in Laemmli-extraction-buffer; from tissue; host or cells: myocardium of GTKO/hCD46/hTM pig donor hearts transplanted orthotopically into baboons (Papio anubis); control: non-transplanted pig heart
Protocol: For protein extraction, heart samples were homogenized in Laemmli-extraction-buffer, and the protein content was estimated by the bicinchoninic acid (BCA, Merck, Darmstadt, Germany) protein assay. 20 μg of total protein was separated by 10% SDS-PAGE and transferred to polyvinylidene difluoride (PDVF) membranes (Millipore, Billerica, USA) by electroblotting. Membranes were washed in Tris-buffered saline solution with 0.1% Tween-20 (Merck) (TBS-T) and blocked in 5% w/v fat-free milk powder (Roth, Karlsruhe, Germany) for 1 h at room temperature. Then membranes were washed again in TBS-T and incubated in 5% w/v BSA (Roth) of the appropriate primary antibody overnight at 4° C. […] Bound antibodies were detected using an enhanced chemiluminescence detection reagent (ECL Advance Western Blotting Detection Kit, GE Healthcare, Munich, Germany) and appropriate x-ray films (GE Healthcare). […]
For protein extraction, heart samples were homogenized in Laemmli sample buffer and the protein content was estimated using the bicinchoninic acid (BCA, Merck) protein assay. […] Bound antibodies were detected using an enhanced chemiluminescence detection reagent (ECL Advance Western Blotting Detection Kit, GE Healthcare) and appropriate X-ray films (GE Healthcare). […]

[2] = biological target: T2, porcine growth hormone receptor (GHR) (pig, UniProt P19756 19-638); assay: ligand immunohistochemistry: rat GH on liver and kidney paraffin sections of control and GHR-KO pigs, detected with anti-rat GH antibody and DAB
T2 construct: whole, on cells; Endogenous receptor in tissue sections of control pigs; GHR-KO pigs (frameshift in exon 3) lack it; also called porcine GHR
T2 sequence (looked up): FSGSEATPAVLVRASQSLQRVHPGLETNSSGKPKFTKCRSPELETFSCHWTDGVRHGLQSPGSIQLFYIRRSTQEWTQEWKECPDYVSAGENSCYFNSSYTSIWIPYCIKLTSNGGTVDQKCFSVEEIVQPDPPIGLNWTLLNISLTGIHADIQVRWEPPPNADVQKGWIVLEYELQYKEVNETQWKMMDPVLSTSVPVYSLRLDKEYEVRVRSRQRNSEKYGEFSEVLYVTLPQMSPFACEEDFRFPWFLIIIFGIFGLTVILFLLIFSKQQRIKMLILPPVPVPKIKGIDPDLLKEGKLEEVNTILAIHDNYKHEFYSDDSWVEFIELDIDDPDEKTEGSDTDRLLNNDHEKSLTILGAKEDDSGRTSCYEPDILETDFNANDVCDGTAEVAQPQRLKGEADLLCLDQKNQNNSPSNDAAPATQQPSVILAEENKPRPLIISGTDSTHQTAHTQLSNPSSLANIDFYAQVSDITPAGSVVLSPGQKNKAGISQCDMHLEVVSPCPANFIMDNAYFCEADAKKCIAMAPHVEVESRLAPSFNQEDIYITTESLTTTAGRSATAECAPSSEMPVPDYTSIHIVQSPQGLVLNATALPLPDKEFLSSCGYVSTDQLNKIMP
Protocol: Liver and kidney tissue of GHR-KO and control pigs was fixed overnight in 4% formaldehyde and routinely embedded in paraffin. Paraffin sections were dewaxed, and endogenous peroxidase and biotin were blocked with 1% H₂O₂ in Tris-buffered saline (TBS) for 15 min and by using the avidin/biotin blocking kit (no. SP-2001; Vector Laboratories), respectively. After blocking with 0.5% fish gelatin for 30 min, the slides were incubated in 0.5 μg/mL recombinant rat GH (no. 16343667, ImmunoTools) in 0.2% fish gelatin solution overnight at 4° C. They were then washed 3 times for 5 min in TBS and incubated in goat anti-rat GH polyclonal antibody solution (dilution 1:2,400, no. AF1566, R&D Systems) for 6 h at room temperature. After 3 washing steps in TBS (10 min each), the slides were incubated in biotinylated rabbit anti-goat IgG solution (dilution 1:100, no. BA-5000, Vector Laboratories) for 1 h at room temperature, washed 3 times for 10 min in TBS, and finally incubated with horseradish peroxidase-labelled avidin biotin complex for 30 min (no. PK-6100, VECTASTAIN Elite ABC-Peroxidase kit, Vector Laboratories). Immunoreactivity was visualized using 3,3′-diaminobenzidine tetrahydrochloride dihydrate (DAB) (brown color). Nuclear counterstaining was performed with Mayer's hemalum (blue color). […]

[3] = group III, with antihypertensive treatment and early glucocorticoid tapering

T1 sequence (F1RHR8 1-2548): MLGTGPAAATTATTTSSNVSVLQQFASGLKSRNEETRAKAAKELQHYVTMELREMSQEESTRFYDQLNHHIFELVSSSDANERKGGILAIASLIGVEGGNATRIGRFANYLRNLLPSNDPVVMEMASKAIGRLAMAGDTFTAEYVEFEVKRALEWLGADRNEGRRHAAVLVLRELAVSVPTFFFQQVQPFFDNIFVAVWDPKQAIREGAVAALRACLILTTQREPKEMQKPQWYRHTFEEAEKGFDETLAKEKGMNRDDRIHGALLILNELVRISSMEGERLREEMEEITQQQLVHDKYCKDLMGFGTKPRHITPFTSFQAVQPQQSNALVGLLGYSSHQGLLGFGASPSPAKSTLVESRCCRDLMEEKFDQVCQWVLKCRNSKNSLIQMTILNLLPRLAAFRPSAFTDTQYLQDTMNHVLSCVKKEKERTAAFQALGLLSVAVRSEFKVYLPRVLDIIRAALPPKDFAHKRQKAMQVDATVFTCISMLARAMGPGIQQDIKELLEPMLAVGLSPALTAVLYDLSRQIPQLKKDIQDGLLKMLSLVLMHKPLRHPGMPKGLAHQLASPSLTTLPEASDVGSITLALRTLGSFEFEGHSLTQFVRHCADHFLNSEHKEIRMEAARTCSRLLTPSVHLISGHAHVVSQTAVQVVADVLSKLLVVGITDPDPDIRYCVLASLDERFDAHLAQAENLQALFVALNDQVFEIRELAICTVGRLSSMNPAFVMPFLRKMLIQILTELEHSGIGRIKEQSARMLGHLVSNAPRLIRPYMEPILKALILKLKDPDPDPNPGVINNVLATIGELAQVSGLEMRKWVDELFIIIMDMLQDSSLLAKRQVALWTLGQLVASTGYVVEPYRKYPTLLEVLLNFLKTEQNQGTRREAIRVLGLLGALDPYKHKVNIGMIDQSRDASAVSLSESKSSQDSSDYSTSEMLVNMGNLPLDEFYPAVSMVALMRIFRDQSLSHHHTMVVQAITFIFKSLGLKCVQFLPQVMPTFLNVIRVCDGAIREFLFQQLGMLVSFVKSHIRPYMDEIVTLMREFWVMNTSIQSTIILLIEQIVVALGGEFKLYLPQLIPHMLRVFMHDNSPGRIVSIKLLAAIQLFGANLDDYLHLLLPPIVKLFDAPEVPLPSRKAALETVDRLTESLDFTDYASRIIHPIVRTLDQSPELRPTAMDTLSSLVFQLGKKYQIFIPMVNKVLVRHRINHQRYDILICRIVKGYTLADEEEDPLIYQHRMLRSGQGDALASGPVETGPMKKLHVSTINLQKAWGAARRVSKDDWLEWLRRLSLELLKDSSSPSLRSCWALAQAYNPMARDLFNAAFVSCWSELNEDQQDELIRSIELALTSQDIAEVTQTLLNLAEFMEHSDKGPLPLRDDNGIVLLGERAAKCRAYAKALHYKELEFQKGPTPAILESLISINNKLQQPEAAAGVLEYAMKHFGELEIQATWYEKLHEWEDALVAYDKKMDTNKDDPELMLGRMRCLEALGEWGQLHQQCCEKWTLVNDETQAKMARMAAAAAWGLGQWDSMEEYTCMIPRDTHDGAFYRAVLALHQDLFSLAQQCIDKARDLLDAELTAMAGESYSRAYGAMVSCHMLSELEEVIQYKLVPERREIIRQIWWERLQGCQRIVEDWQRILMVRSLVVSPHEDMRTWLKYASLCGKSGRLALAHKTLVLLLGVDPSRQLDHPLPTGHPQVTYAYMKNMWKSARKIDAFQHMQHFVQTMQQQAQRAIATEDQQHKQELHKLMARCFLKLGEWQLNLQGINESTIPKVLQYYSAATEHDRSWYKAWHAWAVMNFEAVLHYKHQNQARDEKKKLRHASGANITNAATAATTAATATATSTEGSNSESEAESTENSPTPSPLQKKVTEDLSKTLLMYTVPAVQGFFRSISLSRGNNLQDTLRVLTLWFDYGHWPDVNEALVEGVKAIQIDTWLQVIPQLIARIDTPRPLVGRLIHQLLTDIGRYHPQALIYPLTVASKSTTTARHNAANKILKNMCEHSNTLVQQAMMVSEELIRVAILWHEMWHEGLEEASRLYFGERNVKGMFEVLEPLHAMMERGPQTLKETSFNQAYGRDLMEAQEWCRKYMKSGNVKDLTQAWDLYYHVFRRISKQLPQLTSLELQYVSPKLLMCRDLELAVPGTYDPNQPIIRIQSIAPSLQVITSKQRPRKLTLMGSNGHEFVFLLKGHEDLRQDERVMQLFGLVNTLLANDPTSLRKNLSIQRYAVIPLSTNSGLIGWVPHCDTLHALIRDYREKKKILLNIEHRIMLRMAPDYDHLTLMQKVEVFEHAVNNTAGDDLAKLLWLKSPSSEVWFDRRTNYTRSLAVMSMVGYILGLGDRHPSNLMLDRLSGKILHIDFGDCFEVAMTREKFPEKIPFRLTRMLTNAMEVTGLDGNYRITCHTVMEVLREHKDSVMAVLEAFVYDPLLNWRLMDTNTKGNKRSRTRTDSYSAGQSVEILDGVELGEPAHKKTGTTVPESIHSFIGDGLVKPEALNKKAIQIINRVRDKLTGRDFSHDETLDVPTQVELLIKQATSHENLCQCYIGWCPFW

phosphorylated mTOR in myocardium (Western blot) (phosphorylated mTOR): downregulated
Molecule: CO[C@H]1C[C@@H]2CC[C@@H](C)[C@@](O)(O2)C(=O)C(=O)N2CCCC[C@H]2C(=O)O[C@H]([C@H](C)C[C@@H]2CC[C@@H](OC(=O)C(C)(CO)CO)[C@H](OC)C2)CC(=O)[C@H](C)/C=C(\C)[C@@H](O)[C@@H](OC)C(=O)[C@H](C)C[C@H](C)/C=C/C=C/C=C/1C [temsirolimus]
pathologic findings described for groups I and II (heart and liver failure, graft overgrowth, myocardial hypertrophy) ([1]; group III recipients: antihypertensive treatment, early glucocorticoid weaning and additional temsirolimus medication): absent
cardiac overgrowth ([1]; group III, combination of blood pressure lowering, early cortisone tapering and temsirolimus): successfully counteracted
myocardial hypertrophy of the transplanted heart [1, 3]: mitigated
obliteration of LV cavity [1, 3]: omitted
growth of the cardiac graft (LV mass) after discontinuation of temsirolimus ([1]; recipients 13 and 14, i.v. temsirolimus discontinued on day 175 and on day 161): increased growth of the cardiac graft
PCNA in myocardium (Western blot) (PCNA): downregulated

binding result [2]: binds
B1: recombinant rat GH (no. 16343667, ImmunoTools) (ligand, UniProt P01244 27-216, looked up)
chain: FPAMPLSSLFANAVLRAQHLHQLAADTYKEFERAYIPEGQRYSIQNAQAAFCFSETIPAPTGKEEAQQRTDMELLRFSLLLIQSWLGPVQFLSRIFTNSLMFGTSDRVYEKLKDLEEGIQALMQELEDGSPRIGQILKQTYDKFDANMRSDDALLKNYGLLSCFKKDLHKAETYLRVMKCRRFAESSCAF
notes: Used at 0.5 ug/mL as the ligand in ligand immunohistochemistry; Detected with goat anti-rat GH polyclonal antibody; also called growth hormone
